The values that follow come from publication PMC8169650, “Identification of Small Molecule Inhibitors of a Mir155 Transcriptional Reporter in Th17 Cells” (Scientific Reports, 2021).

Assay [1] has as its system IL-17 production in Th17 cells. Nature of the assay: Intracellular IL-17 flow cytometric cytokine assay under Th17 polarization. In kind it is cell-based, mouse. The following applies: for IL-17+ cells, gated on live CD4+CD44high cells / inhibition at 20 µM: 20 µM; for IL-17+ cells, gated on live CD4+CD44high cells: DMSO 32% (panel b), 36.8% (panel c); for inhibition at 20 µM: Mus musculus, 96 h, day 4, C57BL/6 CD4+ T cells, read-out: down-regulation (inhibition) of IL-17 production compared to control. The method, then: It has been previously shown that IL-17 production is defective in miR-155 deficient cells. […] To test the hit compounds for IL-17 downregulation, we purified naive CD4^+ T cells from C57BL/6 mice and cultured them under Th17 polarization condition. Small molecules at multiple concentrations (20 µM, 10 µM and 5 µM) were added 18 h post-plating of CD4^+ T cells on anti-CD3/CD28 coated plates and again on day 2 of culture (schema depicted in Fig. 3a).
Spleens and lymph nodes were harvested from mice and single cell suspensions were prepared by mechanical disruption followed by lysis of red blood cells with 0.83% ammonium chloride. CD4^+ T cells were either isolated by FACS sorting (BD FACS Aria) or were positively selected using magnetic CD4 microbeads (Miltenyi Biotec). For intracellular IL-17 quantitation by flow cytometry, 0.25 million cells/ well were plated in anti-CD3/CD28 (1 µg/ml) coated 48 well plates. A cocktail containing 10 ng/ml each of IL-6, IL-1 β, IL-21 and TGF-β (0.5 ng/ml) and IFNγ, IL-4, IL-12 neutralizing antibodies (10 μg/ml) was used for the Th17 polarizing conditions. All recombinant cytokines were purchased from R&D Systems and crosslinking antibodies were purified from hybridomas (Harlan). Cells were treated with small molecules at indicated concentrations at 18 h and 48 h of cell plating. On day 4 of the culture, cells were stimulated with 20 ng/ml of phorbol 12-myristate 13-acetate (PMA) and ionomycin (1 μg/ml) for 4 h in the presence of brefeldin A. Following stimulation, cells were stained with fixable viability dye (eBioscience) and surface stained for CD44 and CD4, permeabilized using cytofix/cytoperm (BD biosciences) and subsequently, stained for intracellular IL-17. Foxp3/Transcription Factor Staining kit (eBioscience) kit was used for intranuclear staining of RORγt. Samples were acquired on BD Fortessa and analyzed using Flowjo (Tree star Inc).
For orientation: Flow cytometry measures light scatter and fluorescence of single cells or particles in a stream.

For a further assay, the system named is Mir155 reporter. Nature of the assay: Mir155 reporter Beta-Glo HTS assay (β-gal activity). In kind it is cell-based, mouse. The following applies: for EC50: Mus musculus, β-gal signal, 48 h, read-out: EC50, inhibition of Mir155 reporter expression; for EC50 / effect on Mir155 reporter expression: Th17 cells from Mir155 reporter mice; for effect on Mir155 reporter expression: dose response. The method, then: To develop an assay for the HTS screen, CD4^+ T cells were purified from spleen and lymph nodes of the Mir155 reporter mice. The purified CD4^+ T cells were cultured under Th17 cell-polarizing conditions in twelve well plates following which differentiated Th17 cells were transferred and expanded in six well plates followed by a resting period of 2 days in T cell media (schema depicted in Fig. 1a). We first optimized the cell number to maximize the assay window. To this end, differentiated Th17 cells were plated at different cell densities in the wells of polystyrene 1536-well plates under Th17 polarizing conditions. T cell activation was accomplished using two protocols. In the first protocol, magnetic beads coupled to anti-CD3 and anti-CD28 antibodies (CD3/CD28 microbeads) were added to mediate T cell activation as induction of MiR155 expression requires engagement of the TCR CD3 complex (signal 1) plus the co-stimulatory molecule CD28 (signal 2). The cells along with the beads were incubated at 37 °C, 5% CO2 for 48 h and, subsequently, high-throughput quantitation of β-gal activity was performed after 30 min of incubation using the Beta-Glo Assay system (Fig. 1b).
The NPC collection was screened at seven concentrations (top concentration 46 µM; 1:5 dilution thereafter) and drug response curves for the compounds were generated using our qHTS curve class classification algorithm as described above.
CD4^+ cells were purified from spleens and lymph nodes of Mir155 reporter mice as described above. Briefly, single cell suspensions were prepared by mechanical disruption followed by lysis of red blood cells with 0.83% ammonium chloride. CD4^+ T cells were either isolated by FACS sorting (BD FACS Aria) or were positively selected using magnetic CD4 microbeads (Miltenyi Biotec)[43]. 1 million CD4^+ cells/well were cultured in anti-CD3/CD28 (1 µg/ml each) coated 12 well plates under Th17 polarization conditions following which differentiated Th17 cells were transferred and expanded in six well plates followed by a resting period of 2 days in T cell media. A cocktail containing 10 ng/ml each of IL-6, IL-1 β, IL-21 and TGF-β (0.5 ng/ml) and IFNγ, IL-4, IL-12 neutralizing antibodies (10 μg/ml) was used for the Th17 polarizing conditions. For the HTS assay, 2000 differentiated Th17 cells/well in Th17 polarizing media were added to Greiner-one high base solid bottom white tissue culture treated 1536 well plates (catalog # 789173-F) using a small cassette and a Multidrop Combi dispenser (Thermo Fisher Scientific Inc.,Waltham, MA). Compounds were added using a Kalypsys pintool (Columns 5–48) and magnetic beads coupled to anti-CD3 and anti-CD28 (CD3/CD28 microbeads) were added to mediate T cell activation. CD3/CD28 microbeads were not added to first 2 columns and those wells served as basal control. DMSO was added to columns 3 and 4 and served as 100% signal. The plates were incubated for 48 h at 37 °C, 5% CO2, 95% humidity covered with low evaporation stainless steel lids from Kalypsys. After 48 h of incubation, 5 µl of Beta-Glo reagent (Beta Glo Assay System, Promega) was added using a Bioraptor Flying Reagent Dispenser (Aurora Discovery-BD) and the plates were incubated at room temperature for 30 min. Luminescence signal was captured using a 10 s exposure with a ViewLux (Perkin Elmer) containing a luminescent filter. Beta Glo reagent consists of Beta Glo substrate and buffer that are combined to form the Beta Glo reagent (Beta Glo Assay System, Promega).

The mark [2] stands for this setting: fresh batch compared to older batch.

The term inhibition denotes the drop in the measured response relative to a control, in per cent. A word on the EC50: it is the concentration needed to bring the measured effect to its halfway point.

Each structure is given as a SMILES string.

Consider `CCOc1ccc(/C=C/c2nc3ccccc3n2S(=O)(=O)c2ccc(Br)cc2)cc1` [NCGC00108244], for which, in assay [1], the “IL-17+ cells, gated on live CD4+CD44high cells” value (“IL-17+ cells, gated” below) amounted to 30.4% and the inhibition at 20 µM turned out to be 17%. Besides, the concentration for a half-maximal effect (EC50) with Mir155 reporter came out at 12600 nM.
With `CSc1ccc(/C=C/c2nc3ccccc3n2S(=O)(=O)c2ccc(Br)cc2)cc1` [NCGC00108248, (E)-1-((4-bromophenyl)sulfonyl)-2-(4-(methylthio)styryl)-1H-benzo[d] imidazole], in assay [1], the “IL-17+ cells, gated” value is listed as 3.8% and the inhibition at 20 µM was 90%. Moreover, the “inhibition of IL-17, solutions of fresh powders” value in assay [1] (setting [2]) is on record as “not potent inhibitors of IL-17”. For the same molecule, in the assay with Mir155 reporter, the concentration for a half-maximal effect (EC50) turned out to be 2200 nM. Also, the “activity in miR-155 HTS assay, solutions of fresh powders” value with Mir155 reporter (setting [2]) is “inactive or demonstrated attenuated activity”.
As to `Cc1ccc(/C=C/c2nc3ccccc3n2S(=O)(=O)c2cccc(Cl)c2)cc1` [NCGC00140605], in assay [1], the “IL-17+ cells, gated” value is given as 13.1% and the inhibition at 20 µM was found to be 65%. Also, the EC50 with Mir155 reporter is 600 nM.
For `Cc1ccc(/C=C/c2nc3ccccc3n2S(=O)(=O)c2ccc(Br)cc2)cc1` [NCGC00140607], in that order: 16.6%, 55% and 3700 nM.
As to `CSc1ccc(/C=C/c2nc3ccccc3[nH]2)cc1` [NCGC00507974, (E)-2-(4-(methylthio)styryl)-1H-benzo[d] imidazole], the “effect on IL-17 production” value in assay [1] (C57BL/6 CD4+ T cells, Th17 polarization) is “dose-dependent inhibition of IL-17 production”. In addition, in the assay with Mir155 reporter, the EC50 worked out at 1200 nM and the “effect on Mir155 reporter expression” value is reported as “dose dependent reduction of Mir155 reporter expression”.
`c1ccc(-c2ccc(C(c3ccccc3)n3ccnc3)cc2)cc1` (stereo not drawn) [bifonazole, reference compound]: the “effect on Mir155 reporter expression” value with Mir155 reporter was “either modest down-regulators or did not affect Mir155 reporter expression”.
The same measure, in the same setting: next, `OC(Cn1cncn1)(Cn1cncn1)c1ccc(F)cc1F` [fluconazole, reference compound]: “either modest down-regulators or did not affect Mir155 reporter expression”.
With `CC(=O)N1CCN(c2ccc(OCC3COC(Cn4ccnc4)(c4ccc(Cl)cc4Cl)O3)cc2)CC1` (stereo not drawn) [ketoconazole, reference compound], the “effect on Mir155 reporter expression” value in the assay with Mir155 reporter was “either modest down-regulators or did not affect Mir155 reporter expression”.
In the case of `Clc1cccc(C(c2ccc3[nH]cnc3c2)n2ccnc2)c1` (stereo not drawn) [liarozole, reference compound], the “effect on Mir155 reporter expression” value with Mir155 reporter is reported as “either modest down-regulators or did not affect Mir155 reporter expression”.
